SMILES strings stand for the structures.

Broadly, the AC50 is the concentration at which the activity in the assay is half-maximal. A lower AC50 goes with greater potency.
Note: assay procedure not described here.

Chain of Sodium-dependent serotonin transporter (P31645 whole entry): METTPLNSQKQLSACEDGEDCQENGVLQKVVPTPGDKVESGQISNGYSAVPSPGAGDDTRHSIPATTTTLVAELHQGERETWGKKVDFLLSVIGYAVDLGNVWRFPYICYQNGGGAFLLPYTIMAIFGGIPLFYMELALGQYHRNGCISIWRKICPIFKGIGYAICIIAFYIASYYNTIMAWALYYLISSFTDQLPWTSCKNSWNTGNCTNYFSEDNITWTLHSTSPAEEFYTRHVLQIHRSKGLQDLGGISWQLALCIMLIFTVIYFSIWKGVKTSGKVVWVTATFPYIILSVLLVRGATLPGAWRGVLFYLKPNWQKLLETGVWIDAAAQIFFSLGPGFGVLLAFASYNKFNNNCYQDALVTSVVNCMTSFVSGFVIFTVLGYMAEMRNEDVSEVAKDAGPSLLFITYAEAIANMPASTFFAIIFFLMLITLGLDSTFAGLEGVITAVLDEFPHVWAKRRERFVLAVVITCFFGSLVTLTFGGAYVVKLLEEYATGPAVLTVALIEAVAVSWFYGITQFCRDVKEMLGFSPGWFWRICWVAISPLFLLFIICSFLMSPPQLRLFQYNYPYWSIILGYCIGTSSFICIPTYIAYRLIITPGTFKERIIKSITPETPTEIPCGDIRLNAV

For one test, the target named is Acetylcholinesterase (Homo sapiens, UniProt P22303). Type of test: functional.
Chain of Acetylcholinesterase (P22303 whole entry): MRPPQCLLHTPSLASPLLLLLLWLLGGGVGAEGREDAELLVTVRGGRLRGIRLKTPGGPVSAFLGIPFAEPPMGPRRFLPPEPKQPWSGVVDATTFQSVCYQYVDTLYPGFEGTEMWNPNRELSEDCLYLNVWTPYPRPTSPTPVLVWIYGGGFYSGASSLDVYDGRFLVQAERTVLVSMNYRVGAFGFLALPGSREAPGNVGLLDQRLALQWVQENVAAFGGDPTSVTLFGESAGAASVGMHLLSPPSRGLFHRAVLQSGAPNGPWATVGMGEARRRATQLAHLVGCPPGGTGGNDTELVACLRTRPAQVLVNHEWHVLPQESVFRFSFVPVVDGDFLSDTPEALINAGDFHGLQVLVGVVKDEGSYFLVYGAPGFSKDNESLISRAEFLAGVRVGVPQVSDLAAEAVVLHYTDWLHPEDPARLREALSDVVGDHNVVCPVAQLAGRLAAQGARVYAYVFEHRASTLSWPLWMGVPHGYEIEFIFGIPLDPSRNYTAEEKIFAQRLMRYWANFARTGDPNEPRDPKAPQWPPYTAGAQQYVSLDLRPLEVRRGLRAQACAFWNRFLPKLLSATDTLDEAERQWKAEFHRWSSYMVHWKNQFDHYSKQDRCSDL
Take `CN1CCCN=C1/C=C/c1cccs1`: the AC50 worked out at 10.9 µM. `CCOC(=O)C1=C(COCCN)NC(C)=C(C(=O)OC)C1c1ccccc1Cl` (stereo unspecified) [AMLODIPINE] had a half-maximal activity concentration (AC50) greater than 30 µM. As to `CN/C(=N/CCSCc1nc[nH]c1C)NC#N` [CIMETIDINE], the concentration at half-maximal activity (AC50) is greater than 30 µM. The same measure, in the same setting: the figure for `CC(C)n1c(/C=C/C(O)CC(O)CC(=O)O)c(-c2ccc(F)cc2)c2ccccc21` (stereo unspecified) [FLUVASTATIN] is greater than 30 µM; for `CN1CCN(CC(=O)N2c3ccccc3C(=O)Nc3cccnc32)CC1` [PIRENZEPINE] it is greater than 30 µM.

A further test addresses Sodium-dependent serotonin transporter (Homo sapiens, UniProt P31645).
Regarding `CN1CCN(CC(=O)N2c3ccccc3C(=O)Nc3cccnc32)CC1` [PIRENZEPINE], the AC50 was greater than 30 µM.
